Source: US6841684B2, “Imidiazoles having reduced side effects” (Allergan, Inc., priority 1997, dated 2005)
Structures can show the parent of a compound that is named as a salt.

target: T1, rat α2B (RNG gene) receptor (Rattus norvegicus, UniProt P19328); experiment: RSAT (Receptor Selection and Amplification Technology) assay, alpha 2B; format: cell-based; details: ratio of maximal effect to that of standard full agonist oxymetazoline
T1 construct: expressed in transfected cells; host or cells: NIH-3T3 cells, calcium phosphate cotransfection
T1 sequence (P19328 1-453): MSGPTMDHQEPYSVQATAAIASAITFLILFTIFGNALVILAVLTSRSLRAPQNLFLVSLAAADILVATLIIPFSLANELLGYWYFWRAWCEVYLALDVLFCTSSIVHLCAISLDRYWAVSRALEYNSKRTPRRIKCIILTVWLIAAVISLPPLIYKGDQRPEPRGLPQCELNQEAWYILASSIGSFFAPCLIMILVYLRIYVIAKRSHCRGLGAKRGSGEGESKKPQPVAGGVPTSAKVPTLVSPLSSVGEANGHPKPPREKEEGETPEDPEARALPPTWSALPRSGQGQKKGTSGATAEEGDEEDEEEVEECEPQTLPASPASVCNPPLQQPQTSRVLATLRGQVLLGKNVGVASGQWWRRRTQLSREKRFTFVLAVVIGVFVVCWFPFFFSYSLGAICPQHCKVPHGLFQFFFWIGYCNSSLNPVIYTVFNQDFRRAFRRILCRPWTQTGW
From the text: This preferential activity can be determined in a variety of functional assays such as Cyclic AMP Production, Shimizu et al, J. Neurochem. […] In the study below, the RSAT assay on cells that have been transiently transfected with the human α2A (c10 gene), rat α2B (RNG gene) and human α2C (c4 gene) receptors was used.
The assay measures a receptor-mediated loss of contact inhibition that results in selective proliferation of receptor-containing cells in a mixed population of confluent cells. The increase in cell number is assessed with an appropriate transfected marker gene such as b-galactosidase, the activity of which can be easily measured in a 96-well format. Receptors that activate the G protein, Gq, elicit this response. Alpha2 receptors, which normally couple to Gi, activate the RSAT response when coexpressed with a hybrid Gq protein that has a Gi receptor recognition domain, called Gq/i5^2.
NIH-3T3 cells are plated at a density of 2×10^6 cells in 15 cm dishes and maintained in Dulbecco's modified Eagle's medium supplemented with 10% calf serum. One day later, cells are cotransfected by calcium phosphate precipitation with mammalian expression plasmids encoding p-SV-b-galactosidase (5-10 mg), receptor (1-2 mg) and G protein (1-2 mg). 40 mg salmon sperm DNA may also be included in the transfection mixture. Fresh media is added on the following day and 1-2 days later, cells are harvested and frozen in 50 assay aliquots. Cells are thawed and 100 ml added to […] aliquots of various concentrations of drugs in triplicate in 96-well dishes. Incubations continue 72-96 hr at 37°. After washing with phosphate-buffered saline, b-galactosidase enzyme activity is determined by adding 200 ml of the chromogenic substrate (consisting of 3.5 mM o-nitrophenyl-b-D-galactopyranoside and 0.5% nonidet P-40 in phosphate buffered saline), incubating overnight at 30° and measuring optical density at 420 nm. The absorbence is a measure of enzyme activity, which depends on cell number and reflects a receptor-mediated cell proliferation. The EC50 and maximal effect of each drug at each alpha2 receptor is determined. The efficacy or intrinsic activity is calculated as a ratio of the maximal effect of the drug to the maximal effect of a standard full agonist for each receptor subtype.

SMILES	Intrinsic Activity Relative to Oxymetazoline, Alpha 2B
C1CO/C(=N\C2CC3CCC2C3)N1 [Example D-3, bicyclo[2.2.1]hept-2-yl oxazolidin-2-ylidene amine]	0.4
c1nc(Cc2cc3c(s2)CCCC3)c[nH]1 [Example K-1, 4(5)-(4,5,6,7-tetrahydrobenzo[b]thiophen-2-ylmethyl)-1H-imidazole]	0.53
CC(C)(C)c1ccc(Cc2c[nH]cn2)o1 [Example K-2, 4(5)-(5-tert-butylfuran-2-ylmethyl)-1H-imidazole]	0.7
c1nc(Cc2cc3c(s2)SCCC3)c[nH]1 [Example K-3, 4(5)-(5,6-dihydro-4H-thieno[2,3-b]thiopyran-2-ylmethyl)-1H-imidazole]	0.37
C1=C2CCCCC2CCC1Cc1c[nH]cn1 (stereo not shown) [Example N-2, 4(5)-(2,3,4,4a,5,6,7,8-octahydronaphthalen-2-ylmethyl)-1H-imidazole]	0.5
c1nc(CC2CCC3=C(CCCC3)C2)c[nH]1 (stereo not shown) [Example N-3, 4(5)-(1,2,3,4,5,6,7,8-octahydronaphthalen-2-ylmethyl)-1H-imidazole, fumarate]	0.75
Cl.c1nc(CC2CC3CCCC3C2)c[nH]1 (stereo not shown) [Example O, 4(5)-octahydro pentalen-2-ylmethyl-1H-imidazole, hydrochloride]	0.67
O=C1c2cnccc2CCC1Cc1c[nH]cn1 (stereo not shown) [Example P-1, 7-(1H-imidazol-4(5)-ylmethyl)-6,7-dihydro-5H-isoquinoline-8-one, fumarate]	0.4
c1cc2c(cn1)CC(Cc1c[nH]cn1)CC2 (stereo not shown) [Example P-2, 7-(1H-imidazol-4(5)-ylmethyl)-5,6,7,8-tetrahydro-isoquinoline, fumarate]	0.4
O=C1/C(=C\c2c[nH]cn2)CCc2ncccc21 [Example Q-1, (Z)-6-(1H-imidazol-4(5)-ylmethylene)-7,8-dihydro-6H-quinolin-5-one]	0.75
O=C1/C(=C/c2c[nH]cn2)CCc2ncccc21 [Example Q-2, (E)-6-(1H-imidazol-4(5)-ylmethylene)-7,8-dihydro-6H-quinolin-5-one]	0.87
O=C1c2cccnc2CCC1Cc1c[nH]cn1 (stereo not shown) [Example Q-3, 6-(1H-imidazol-4(5)-ylmethyl)-7,8-dihydro-6H-quinolin-5-one]	0.9
c1cnc2c(c1)CC(Cc1c[nH]cn1)CC2 (stereo not shown) [Example Q-4, 6-(1H-imidazol-4(5)-ylmethyl)-5,6,7,8-tetrahydro-quinoline, dihydrochloride]	0.8
O=C1C(Cc2c[nH]cn2)CCC2NCCCC12 (stereo not shown) [Example Q-5, 6-(1H-imidazol-4(5)-yl-methyl)-octahydroquinolin-5-one]	1.0
O=C1/C(=C/c2c[nH]cn2)CCc2nccnc21 [Example R-1, (E)-6-(1H-imidazol-4(5)-ylmethylene)-7,8-dihydro-6H-quinoxalin-5-one]	0.8
O=C1c2ccncc2CCC1Cc1c[nH]cn1 (stereo not shown) [Example R-2, 6-(1H-imidazol-4(5)-ylmethyl)-7,8-dihydro-6H-isoquinolin-5-one, dihydrochloride]	0.6
c1cc2c(cn1)CCC(Cc1c[nH]cn1)C2 (stereo not shown) [Example R-3, 6-(1H-imidazol-4(5)-ylmethyl)-5,6,7,8-tetrahydro-isoquinoline, fumarate]	0.6

SMILES	Intrinsic Activity Relative to Oxymetazoline, Alpha 2B
C[C@@]12CCCCC1=C[C@@H](Cc1c[nH]cn1)CC2 [Example S, 4(5)-(4a-methyl-2,3,4,4a,5,6,7,8-octahydro-naphthalen-2-ylmethyl)-1H-imidazole, but-2-enedioic acid salt]	.6
CC1=CC(Cc2c[nH]cn2)CCC1 (stereo not shown) [Example T-1, 4(5)-(3-methyl-cyclohex-2-enylmethyl)-1H-imidazole, but-2-enedioic acid salt]	0.8
CC1=CC(Cc2c[nH]cn2)CC(C)(C)C1 (stereo not shown) [Example T-2, 4(5)-(3,5,5-trimethyl-cyclohex-2-enylmethyl)-1H-imidazole, but-2-endioic acid salt]	0.7
CC1=CC(Cc2c[nH]cn2)CC1 (stereo not shown) [Example T-3, 4(5)-(3-methylcyclopent-2-enylmethyl)-1H-imidazole, but-2-enedioic acid salt]	1.08
C1=CC(Cc2c[nH]cn2)CCC1 (stereo not shown) [Example U-1, 4(5)-cyclohex-2-enylmethyl-1H-imidazole, but-2-enedioic acid salt]	0.6
CC1C=CC(Cc2c[nH]cn2)CC1 (stereo not shown) [Example U-2, 4(5)-(4-methyl-cyclohex-2-enylmethyl)-1H-imidazole, but-2-enedioic acid salt]	0.6
CC1=C(C)CC(Cc2c[nH]cn2)CC1 (stereo not shown) [Example W-1, 4(5)-(3,4-Dimethyl-cyclohex-3-enylmethyl)-1H-imidazole, but-2-enedioic acid salt]	0.55
C1=CCC(Cc2c[nH]cn2)CC1 (stereo not shown) [Example W-2, 4(5)-Cyclohex-3-enylmethyl-1H-imidazole, but-2-enedioic acid salt]	0.6
CC1=CCC(Cc2c[nH]cn2)CC1 (stereo not shown) [Example X-1, 4(5)-(4-Methyl-cyclohex-3-enylmethyl)-1H-imidazole, but-2-enedioic acid salt]	0.8
CCC1=CCC(Cc2c[nH]cn2)CC1 (stereo not shown) [Example X-2, 4(5)-(4-Ethyl-cyclohex-3-enylmethyl)-1H-imidazole, but-2-enedioic acid salt]	0.56
CCCCCC1=CCC(Cc2c[nH]cn2)CC1 (stereo not shown) [Example X-3, 4(5)-(4-Pentyl-cyclohex-3-enylmethyl)-1H-imidazole, but-2-enedioic acid salt]	0.87
Cc1c(N=C2NCCN2)ccc2c1NC(=O)CO2 [F, 6-(imidazolidin-2-ylideneamino)-5-methyl-4H-benzo[1,4]oxazin-3-one]	0.9
Cc1ccc(N=C2NCCN2)c2c1NCCO2.Cl [G, imidazolin-2-ylidene-(5-methyl-3,4-dihydro-2H-benzo[1,4]oxazin-8-yl) amine, hydrogen chloride salt]	0.87
c1ccc(Sc2c[nH]cn2)cc1 [H, 4(5)-phenylsulfanyl-1H-imidazole]	0.93
C1=NC(CC2CCc3ccccc3C2)CN1 (stereo not shown) [I, 4(5)-(1,2,3,4-tetrahydronaphthalen-2-ylmethyl)-4,5-dihydro-1H-imidazole, methane sulfonic acid salt]	0.5
CC(c1c[nH]cn1)c1ccco1 (stereo not shown) [L, 4(5)-(1-furan-2-ylethyl)-1H-imidazole]	0.9
O=C1CCCCC1Cc1c[nH]cn1 (stereo not shown) [V, 2-(1H-Imidazole-4(5)-ylmethyl)-cyclohexanone, but-2-enedioic acid salt]	0.4
